Data from patent EP0509752A2, “Ophthalmic compositions comprising combinations of a carbonic anhydrase inhibitor and a beta-adrenergic antagonist” (MERCK & CO. INC., priority 1991, dated 1992).

Tested on: Patients with either ocular hypertension or primary open angle glaucoma
Experiment: Study of Compound I in combination with timolol: 12 hour diurnal IOP curve (Goldmann applanation tonometer)
Type: in vivo
Conditions: 2% Compound I, 1 drop to each eye every 12 hours for seven days, ten minutes after timolol 0.5% bid, worse eye analysis, preliminary IOP data
Source text: Study of (S,S)-(-)-5,6-dihydro-4-ethylamino-6-methyl-4H-thieno[2,3b]thiopyran-2-sulfonamide-7,7-dioxide (I) in combination with Timolol
Patients aged 40 or over, with either ocular hypertension or primary open angle glaucoma with an intraocular pressure (IOP) in one or both eyes of 22 mmHg or more at one time point each day while receiving timolol 0.5% twice a day (bid) alone were admitted to the study. Patients had been on timolol 0.5% bid, either alone or in combination for at least three weeks prior to study entry and had been on timolol 0.5% bid as their sole glaucoma therapy for at least two weeks prior to study admission.
Secondary glaucoma was an exclusion as was a history of glaucoma surgery or laser trabeculoplasty/gonioplasty. Patients for whom timolol was contraindicated by the datasheet were excluded and also excluded were those on a concurrent β-blocker, carbonic anhydrase inhibitor, or clonidine. […]
• 1. […] Patients were admitted for a 12 hour diurnal curve (i.e., IOP recorded at 08.00, 09.00, 10.00, 12.00, 14.00, 16.00, 18.00, 20.00 hours approximately, the 08.00 recording was immediately prior to instillation of the drops). All pressures were measured by the same observer using the same Goldmann applanation tonometer. • 3. […] On Day 2, the IOP of each patient was measured at 8 am and 9 am, and a 12 hour diurnal curve was recorded on Day 8. preliminary IOP data follow : […]

## CCN[C@H]1C[C@H](C)S(=O)(=O)c2sc(S(N)(=O)=O)cc21 [Compound I, (S,S)-(-)-5,6-dihydro-4-ethylamino-6-methyl-4H-thieno[2,3b]thiopyran-2-sulfonamide-7,7-dioxide]
  effect over the effect of timolol alone (percent change in IOP on Day 8 from prestudy): 13%-21%
